Here are results for three molecules from paper PMC7500650, “Transformation of low molecular compounds and soil humic acid by two domain laccase of Streptomyces puniceus in the presence of ferulic and caffeic acids” (PLoS ONE, 2020).

The subject of the experiment is T1, SpSL (two-domain laccase of Streptomyces puniceus).
T1 construct: TAT signal peptide (1-34) removed: forward primer GGATCC-GAGAAGCCGCCCCG starts the insert at EKPP; pQE-30 (His-tag, cleavage not mentioned), E. coli M15 (pREP4), HisTrap; precursor 344 residues; 110 kDa native homotrimer
In words: oxidation kinetics, nonlinear regression. The class given is biochemical. The following applies: apparent constant, co-substrate O2. From the text: oxidation kinetics, nonlinear regression on SpSL (two-domain laccase of Streptomyces puniceus)

The mark [1] stands for this setting: pH of kinetics not printed (alkaline optimum).

For `CCn1c(=NN=c2sc3cc(S(=O)(=O)O)ccc3n2CC)sc2cc(S(=O)(=O)O)ccc21` [ABTS], the Km (pH of kinetics not printed (routine ABTS assay: 20 mM Na-acetate pH 5.0, 420 nm)) amounted to 370 ± 21 µM.

As for `COc1ccccc1O` [2-Methoxyphenol], the Michaelis-Menten constant (Km) under setting [1] was determined as 5700 ± 250 µM. Still for that read-out and setting: the value for `COc1cccc(OC)c1O` [2,6-Dimethoxyphenol] was 1150 ± 100 µM.
